Here are results for six molecules from PubChem BioAssay (NCI).

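The compound was tested at five concentrations on cells cultured in 96-well plates, with a 48-hour exposure period. TGI: total growth inhibition.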

Some test systems named below: TK-10 renal; SNB-75 CNS; NCI-H522 lung; A498 renal; MDA-N; SW-620 colon; SF-539 CNS; NCI-H460 lung; LOX IMVI melanoma; HCC-2998 colon; IGROV1 ovarian; PC-3 prostate.
Test in all cases: growth of human tumour cells (NCI), 48 h

For the molecule `NC(Cc1ccccc1)C(=O)NC(Cc1ccccc1)NC(=O)C(Cc1c[nH]c2ccccc12)C(=O)O` (configuration not stated), the TGI with TK-10 renal, in the test with SNB-75 CNS, in the test on NCI-H522 lung, in the test with A498 renal, with MDA-N and in the test with SW-620 colon was more than 100 µM in each case. Further, the TGI with SF-539 CNS, in the test with NCI-H460 lung, in the test on LOX IMVI melanoma, with HCC-2998 colon, in the test on IGROV1 ovarian and in the test with PC-3 prostate was more than 100 µM in each case.
Regarding `O=C1OC(c2ccccc2)=N/C1=C\c1ccc([N+](=O)[O-])cc1`, the TGI with TK-10 renal, in the test with SNB-75 CNS, in the test on NCI-H522 lung, in the test with A498 renal, with MDA-N and with SW-620 colon was more than 100 µM throughout. Moreover, the TGI in the test with SF-539 CNS, in the test with NCI-H460 lung, with LOX IMVI melanoma, with HCC-2998 colon, in the test with IGROV1 ovarian and with PC-3 prostate was more than 100 µM each time.
For the molecule `O=C(O)C1C2c3ccccc3C(c3ccccc32)C1C(=O)NCC1CC1` (configuration not stated), the TGI was more than 100 µM with TK-10 renal; more than 100 µM with SNB-75 CNS; 86.9 µM in the test on NCI-H522 lung; more than 100 µM in the test on A498 renal; more than 100 µM in the test with MDA-N; more than 100 µM with SW-620 colon. The TGI is more than 100 µM with SF-539 CNS; more than 100 µM in the test on NCI-H460 lung; more than 100 µM with LOX IMVI melanoma; 55.1 µM with HCC-2998 colon; more than 100 µM with IGROV1 ovarian; more than 100 µM in the test with PC-3 prostate.
Take `COC(=O)c1ccc(Cc2cc(Cc3ccc(C(=O)OC)cc3)cc(Cc3ccc(C(=O)OC)cc3)c2)cc1`: the TGI in the test with TK-10 renal, in the test on SNB-75 CNS, with NCI-H522 lung, in the test with A498 renal, with MDA-N and in the test on SW-620 colon was more than 25 µM throughout. Moreover, the TGI in the test with SF-539 CNS, in the test on NCI-H460 lung, in the test on LOX IMVI melanoma, in the test on HCC-2998 colon, in the test with IGROV1 ovarian and with PC-3 prostate was more than 25 µM in each case.
For the molecule `N#C/C(N)=C(\C#N)NC=NCCO`, the TGI with TK-10 renal, with SNB-75 CNS, in the test on NCI-H522 lung, with A498 renal, with MDA-N and in the test on SW-620 colon was more than 100 µM throughout. The TGI in the test on SF-539 CNS, with NCI-H460 lung, with LOX IMVI melanoma, in the test with HCC-2998 colon, in the test with IGROV1 ovarian and in the test on PC-3 prostate was more than 100 µM each time.
Turning to `Nc1nc(Cl)cc(OCC2(CO)CC=CC2)n1`, the TGI with TK-10 renal, in the test with SNB-75 CNS, in the test on NCI-H522 lung, with A498 renal, in the test on MDA-N and in the test with SW-620 colon was more than 100 µM throughout. In addition, the TGI in the test on SF-539 CNS, in the test with NCI-H460 lung, in the test on LOX IMVI melanoma, with HCC-2998 colon, with IGROV1 ovarian and in the test with PC-3 prostate was more than 100 µM each time.
